Common to all, as to test: inhibition of tumour cell growth, NCI panel, 48 h
Test [1] relates to SW-620 colon.
Test [2] has as its system LOX IMVI melanoma.
For test [3], the system named is HCT-116 colon.
For test [4], the system named is SK-MEL-28 melanoma.
The test system of test [5] is UO-31 renal.
The test system of test [6] is MDA-MB-435.
Test [7] has as its system NCI-H23 lung.
For test [8], the system named is A549 NSCLC.
Test [9] concerns RXF 393 renal.
The subject of test [10] is HT29 colon.

Our source for the GI50 and TGI values is PubChem BioAssay (NCI).

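Method: 48-hour compound exposure of cells in 96-well plates, five concentrations, linear interpolation of endpoints. GI50 is the concentration that inhibits growth by half. TGI denotes the concentration required for complete inhibition of growth.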

For the compound `O=[N+]([O-])c1cc([N+](=O)[O-])c(Cl)c(Cl)c1Cl`, the GI50 in test [1] is 0.535 µM; in test [2], 0.516 µM; in test [3], 0.24 µM; in test [4] it was 1.67 µM; in test [5] it was 1.51 µM; in test [6], 1.72 µM. The GI50 was 2.69 µM in test [7], 3.16 µM in test [8], 0.636 µM in test [9] and 0.477 µM in test [10]. For the same compound, the TGI in test [1] is 1.94 µM; in test [2], 1.86 µM; in [3] it was 0.743 µM; in test [4], 3.06 µM; in [5], 3.08 µM; in test [6], 3.33 µM. In addition, the TGI in test [7] was determined as 8.04 µM; in test [8], 13.9 µM; in test [9], 1.86 µM; in [10] it was 1.99 µM.

On to `CC1=CC[C@@H]2C(C)(C)C(=O)CC[C@@]2(C)[C@@H]1COc1ccc2ccc(=O)oc2c1`, for which the GI50 in [1] is 24.9 µM; in test [2], 17.6 µM; in test [3], 16.4 µM; in [4] it was 16.7 µM; in test [5], 8.15 µM; in test [6], 11.9 µM. The GI50 is 15.3 µM in test [7], 10.9 µM in test [8], 62 µM in test [9] and 23.8 µM in test [10]. Besides, the TGI in test [1] is more than 100 µM; in test [2], 48.6 µM; in [3], more than 100 µM; in test [4], 45.2 µM; in [5] it was 34.9 µM; in [6] it was 29.9 µM. Moreover, the TGI in [7] is 61.2 µM; in [8] it was 71.2 µM; in test [9], more than 100 µM; in test [10], more than 100 µM.

As for `CC(C)(C)[Si](C)(C)OCC1CCC(n2cnc3c(=O)[nH]cnc32)O1` (stereo not given), the TGI in [1], in test [2], in test [3], in [4], in test [5] and in test [6] was more than 100 µM throughout. The TGI in test [7], in test [8], in [9] and in test [10] was more than 100 µM in each case.

With `COc1cccc(C(=O)Nc2ccc(CN3CCc4nc5cc(OC)c(OC)cc5cc43)cc2)c1`, the GI50 in test [1] was 4.16 µM; in [2] it was 2.37 µM; in test [3], 3.12 µM; in test [4], 7.15 µM; in [5], 3.36 µM; in test [6] it was 3.47 µM. The GI50 is 4.5 µM in test [7], 3.78 µM in test [8], 2.74 µM in test [9] and 2.59 µM in test [10]. For the same compound, the TGI in test [1] is 19.4 µM; in test [2], 6.5 µM; in test [3] it was 12.1 µM; in [4] it was more than 100 µM; in [5] it was 60.1 µM; in [6], 19.3 µM. For the same compound, the TGI in [7] is 25.4 µM; in [8], more than 100 µM; in test [9], 15.3 µM; in test [10], 7.05 µM.

Take `O=C1c2ccccc2NC(c2cc(Cl)cc(Cl)c2O)N1CCc1ccccn1` (stereo not given): the TGI in test [1], in [2], in test [3], in [4], in [5] and in test [6] was more than 100 µM throughout. The TGI in test [7], in [8], in test [9] and in [10] was more than 100 µM throughout.

`Cc1c(C)c2c(c(C)c1NC(=O)/C=C\C(=O)O)CCC(C)(CCCC(C)CCCC(C)CCCC(C)C)O2` (stereo not given): the GI50 is 1.66 µM in test [1]; 1.87 µM in test [2]; 1.28 µM in test [3]; 1.79 µM in test [4]; 1.27 µM in test [5]; 1.67 µM in test [6]. Moreover, the GI50 in [7] is 2.1 µM; in [8], 1.79 µM; in [9], 1.74 µM; in test [10], 2.61 µM. Also, the TGI in test [1] came out at 3.25 µM; in test [2] it was 3.69 µM; in test [3], 2.54 µM; in test [4], 3.28 µM; in [5] it was 2.55 µM; in test [6], 3.44 µM. Besides, the TGI in [7] amounted to 4.52 µM; in test [8] it was 3.62 µM; in test [9], 3.23 µM; in [10] it was 8.24 µM.

On to `O=C(/C=C/C12c3ccccc3C(c3ccccc31)C1C(=O)N(c3ccccc3)C(=O)C12)c1ccc(Cl)cc1` (stereo not given), for which the GI50 in test [1] is 2.27 µM; in test [2], 1.65 µM; in test [3], 0.537 µM; in [4], 1.98 µM; in [5] it was 1.12 µM; in test [6] it was 1.93 µM. The GI50 in [7] was 2.61 µM; in test [8], 2.37 µM; in test [9], 1.27 µM; in test [10] it was 1.86 µM. The TGI in test [1] was more than 100 µM; in [2], 3.25 µM; in [3], 2.16 µM; in [4], 5.11 µM; in [5], 2.47 µM; in [6], 5.39 µM. The TGI in [7] is 13.2 µM; in test [8], more than 100 µM; in test [9] it was 2.87 µM; in test [10], 7.88 µM.

As to `CCNC(C)(C)C(SS)c1ccc(Br)cc1` (stereo not given), the TGI in test [1] was 56.2 µM; in test [2], 60.1 µM; in [3], more than 100 µM; in test [4], more than 100 µM; in test [5] it was more than 100 µM; in [6] it was more than 100 µM. Also, the TGI in test [7] was more than 100 µM; in test [8] it was more than 100 µM; in [9], more than 100 µM; in test [10], 69.3 µM.

As for `N=Nc1c(OC(=O)Nc2ccccc2)[nH]c2ccccc12`, the TGI was more than 100 µM in [1]; 33.7 µM in test [2]; 31.6 µM in test [3]; more than 100 µM in [4]; 25.6 µM in test [5]; 45.1 µM in test [6]. Further, the TGI in test [7] was found to be 33.2 µM; in [8], 44.4 µM; in [9] it was 28.7 µM; in test [10] it was 96.2 µM.
